Measurements published in patent US20050186144A1, “Treatment methods” (SCHERING CORPORATION, priority 2004, published 2005).

Tests used:
[1] = Phase-2 double-blind, randomized, placebo-controlled study in acute rhinosinusitis; format: in vivo, human; conditions: Amoxicillin 500 mg three times a day
Method: A Phase-2, dose-ranging, double-blind, double-dummy, randomized, multi-center, multi-national study with 4 parallel groups was carried out. There were three treatment regimens: Mometasone Furoate Nasal Spray 200 μg was administered once a day; Mometasone Furoate Nasal Spray 200 μg also was administered twice a day; Amoxicillin 500 mg was administered three times a day. All three were administered against placebo. The regimens were administered to subjects 12 years of age or older with acute rhinosinusitis that was clinically diagnosed with symptoms present for 7 days or more and 28 days or less. Subjects with a major symptom score (sum of symptoms—facial pain, rhinorrhea, post nasal drip, sinus headache, nasal congestion—each scored 0—none-to 3—severe) greater than or equal to 5 and less than or equal to 12 at baseline with less than or equal to 3 symptoms scored severe were included. Subjects with a bacterial rhinosinusitis suspected on the presence of fever greater than or equal to 101° F./38.3° C., persistent severe unilateral facial pain/tooth pain, orbital or peri-orbital facial swelling, dental involvement; and/or worsening symptoms after initial improvement were excluded from the study. The primary efficacy variable of the study was the actual major symptom score (averaged daily for AM and PM assessments over 15 days of treatment). […]

[2] = Systemic effect of intranasal mometasone furoate (HPLC metabolite profiling of plasma radioactivity, first-pass metabolism, cortisol secretion); format: in vivo; conditions: administered intranasally

first-pass metabolism in the liver [2] | reduction in cortisol secretion levels [2] | SMILES | major symptom score, efficacy vs. placebo ([1]; p=0.275) | recurrence rate ([1]; follow-up phase (14 days), MFNS 200 μg twice a day)
 |  | CC1(C)S[C@@H]2[C@H](NC(=O)[C@H](N)c3ccc(O)cc3)C(=O)N2[C@H]1C(=O)O [Amoxicillin] | not different from placebo | 8%
> 98% | minimal reduction | C[C@@H]1C[C@H]2[C@@H]3CCC4=CC(=O)C=C[C@]4(C)[C@@]3(Cl)[C@@H](O)C[C@]2(C)[C@@]1(OC(=O)c1ccco1)C(=O)CCl [mometasone furoate, Mometasone furoate] |  | 
